Reference: US20040248300A1, “Enhanced gene expression using vectors” (priority 2001, published 2004)

System: human foetal foreskin fibroblasts (HFFF2)
Assay: Responsiveness of the in1360 genome to Trichostatin A: β-galactosidase activity in infected HFFF2 cells
Assay type: cell-based
Description: Trichostatin A (TSA) is an agent that inhibits deacetylases. When it is added to cells, histones and other proteins involved in transcriptions become hyperacetylated, because they are not deacetylated. This frequently results in activation of gene expression. In the case of HSV-1 mutants, the genome is not responsive to TSA once the quiescent state has been established. Monolayers of HFFF2 cells were infected with in1360 and maintained at 38.5° C. At 8 days after infection, cells were either untreated or treated with 660 nM TSA. After maintenance at 38.5° C. for a further 2 days, extracts were made and β-galactosidase activities were measured. The extracts from untreated cells gave a value of 121 units (range 113-129), whereas extracts from TSA-treated cells gave a value of 806 unites (range 739-873), a stimulation of 6.7-fold.

Question: What does the source list for CC(/C=C/C(=O)NO)=C\[C@@H](C)C(=O)c1ccc(N(C)C)cc1 [TSA, Trichostatin A]?
Answer: β-galactosidase activity, extracts from TSA-treated cells (660 nM TSA added 8 days after infection, a further 2 days at 38.5° C., range 739-873): 806 unites; effect of TSA on X-gal stained cells (in words) (660 nM TSA for 2 days, 10 days after infection): increased the number of positive cells and the intensity of straining; stimulation of β-galactosidase activity by TSA (660 nM TSA versus untreated): 6.7 fold
